# PubChem BioAssay (NCI)
#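 In this assay, cells in 96-well plates receive the compound at five concentrations for 48 hours. Endpoints are linearly interpolated between the surrounding concentrations. GI50 is the concentration that inhibits growth by half. The concentration for full growth arrest is given as TGI.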
# What was measured:
# Test in all cases: growth of human tumour cells (NCI), 48 h
# IGROV1 ovarian = tested on: IGROV1 ovarian
# HS 578T breast = tested on: HS 578T breast
# NCI/ADR-RES ovarian = tested on: NCI/ADR-RES ovarian
# NCI-H226 lung = tested on: NCI-H226 lung
# A549 NSCLC = tested on: A549 NSCLC
# MDA-N = tested on: MDA-N
# OVCAR-8 ovarian = tested on: OVCAR-8 ovarian
# U251 CNS = tested on: U251 CNS
# TK-10 renal = tested on: TK-10 renal
# M14 melanoma = tested on: M14 melanoma
# NCI-H460 lung = tested on: NCI-H460 lung
# A498 renal = tested on: A498 renal
Compound,TGI (IGROV1 ovarian) [µM],TGI (HS 578T breast) [µM],TGI (NCI/ADR-RES ovarian) [µM],TGI (NCI-H226 lung) [µM],TGI (A549 NSCLC) [µM],TGI (MDA-N) [µM],TGI (OVCAR-8 ovarian) [µM],TGI (U251 CNS) [µM],TGI (TK-10 renal) [µM],TGI (M14 melanoma) [µM],GI50 (NCI-H460 lung) [µM],TGI (NCI-H460 lung) [µM],GI50 (IGROV1 ovarian) [µM],GI50 (HS 578T breast) [µM],GI50 (A549 NSCLC) [µM],GI50 (MDA-N) [µM],GI50 (A498 renal) [µM],TGI (A498 renal) [µM],GI50 (TK-10 renal) [µM]
COc1ccc(/C=C2\N=C(N3CCCC(CO)C3)NC2=O)cc1 (configuration not stated),> 100,> 100,> 100,> 100,> 100,> 100,> 100,> 100,> 100,> 100,,,,,,,,,
FC1(F)ON2CCc3ccccc3C2[C@H]1c1ccccc1 (some centres not stated),> 100,> 100,> 100,> 100,> 100,> 100,> 100,> 100,> 100,> 100,> 100,> 100,> 100,45.9,> 100,> 100,> 100,> 100,> 100
CN1CCC2(CC1)SSC1(CCN(C)CC1)S2,,> 100,> 100,,> 100,> 100,> 100,> 100,,> 100,,> 100,,,,,,,
O=C1C(Cl)=C(Cl)C(=O)C(CCNc2nccs2)=C1Cl,42.2,75.3,58.7,,> 100,,87.3,> 100,63.6,42,,> 100,,,,,,,
Cn1c(-c2ccc(C=O)o2)ccc1-c1ccc(C=O)o1,> 100,,> 100,> 100,> 100,> 100,> 100,> 100,> 100,> 100,,> 100,,,,,,> 100,
CC1OC(OC2C(O)COC(OC3C(C)OC(OC4C(OC(=O)[C@]56CCC(C)(C)C[C@@H]5C5=CCC7[C@@]8(C)C[C@H](O)[C@H](OC9OC(CO)C(O)C(O)C9O)[C@@](C)(CO)[C@@H]8CC[C@@]7(C)[C@]5(C)CC6)OCC(O)C4O)C(O)C3O)C2O)C(O)C(O)C1O (some centres not stated),,60.4,44.9,50.2,43.6,42.3,43.4,54.9,35.3,41.9,,48.6,,,,,,36,
c1ccc2c3c(ccc2c1)-c1[nH]ncc1CCO3,> 86.9,,> 100,,> 100,,> 90.1,51.8,,,,> 88,,,,,,99.7,
ClCc1nc2ccccc2[nH]1,> 100,> 100,> 100,> 100,> 100,,> 100,> 100,> 100,> 100,,> 100,,,,,,> 100,
CCCn1cc2c(=O)[nH]c(SC)nc2n1,> 100,,,89.1,> 100,,> 100,> 100,> 100,> 100,,> 100,,,,,,> 100,
CC1CCN(C(C)C)P(=S)(Cc2ccccc2)O1 (configuration not stated),> 100,,> 100,> 100,> 100,,> 100,> 100,> 100,> 100,,> 100,,,,,,,
Cc1ccc2c(c1)nc1n2C(c2c(F)cccc2F)SC1 (configuration not stated),> 100,92.7,> 100,> 100,> 100,> 100,> 100,> 100,> 100,> 100,,> 100,,,,,,,
COc1ccc(C(=O)/C=C/c2ccc(OCCCCCCCCCCOc3ccc(/C=C/C(=O)c4ccc(OC)cc4)cc3)cc2)cc1,> 100,> 100,> 100,> 100,> 100,> 100,> 100,> 100,> 100,> 100,,> 100,,,,,,,
COC(=O)CCc1ccc(CCC(=O)OC)cc1,> 100,> 100,> 100,,> 100,> 100,> 100,> 100,> 100,> 100,,> 100,,,,,,> 100,
Fc1cc(C2=Nn3c(COc4ccccc4Cl)nnc3S/C2=C\c2ccc(Cl)cc2)c(Cl)cc1Cl,33,36.4,30.1,> 100,,6.23,> 100,80.2,> 100,17,,> 100,,,,,,29.7,
COC(=O)c1ccc(NCc2cc(OC)ccc2OC)cc1,> 100,> 100,> 100,> 100,> 100,> 100,> 100,> 100,> 100,> 100,,,,,,,,78.8,
COC(=O)C(Cc1c[nH]c2ccccc12)NC(=O)C(Cc1cnc[nH]1)NC(=O)C1CCC(=O)N1C(=O)OCc1ccccc1 (configuration not stated),> 100,> 100,,> 100,> 100,> 100,> 100,> 100,> 100,> 100,,> 100,,,,,,68.3,
COC(=O)C1=CO[C@@H](C)[C@@H]2Cn3ccc4c5ccccc5nc-4c3C[C@H]12,> 100,,,> 100,> 100,,> 100,> 100,> 100,> 100,,> 100,,,,,,> 100,
Cc1nc(OCc2ccccc2)c2ncn(CCO)c2n1,> 100,> 100,> 100,> 100,> 100,> 100,,> 100,> 100,> 100,,> 100,,,,,,> 100,
Cc1ncn(-c2ccccc2O)c1C,> 100,> 100,> 100,> 100,> 100,> 100,> 100,> 100,> 100,> 100,,,,,,,,> 100,
Nn1c(CCCCCCCCc2nnc(-c3c(O)ccc4ccccc34)n2N)nnc1-c1c(O)ccc2ccccc12,> 100,> 100,> 100,> 100,> 100,> 100,> 100,> 100,> 100,> 100,,> 100,,,,,,,
